Results on 17 molecules are retold here after article PMC7651859, “Identification of 6-amino-1H-pyrazolo[3,4-d]pyrimidines with in vivo efficacy against visceral leishmaniasis” (RSC Medicinal Chemistry, 2020).

Molecules are shown by their SMILES. In brackets after ≈: the same amount, converted by molar mass. Where only a bound is given, the exact number is not on record here.

One data set relates to L. donovani amastigotes. The data set is described as follows: Ld InMac intramacrophage Leishmania donovani assay. Conditions: for EC50: Leishmania donovani, L. donovani amastigotes in THP-1 cells, mean of n ≥ 3, read-out: Ld InMac pEC50 (converted). It is filed as cell-based. The source says:
(§1) For the identification of DDD853651/GSK3186899, which contained a trans-1,4-cyclohexyldiamine, a key strategy was to optimise the balance between potency in the intracellular Leishmania assay (L. donovani in THP-1 cells, referred to as Ld InMac assay[9]) and solubility.[10] In that case, we focused on 2 (Table 1), where the sulfonamide was required for potency but was poorly soluble. […] To this end, we examined a 4-aminopiperidine central unit with both sulfonamide and amide substituents (Table 1). […] We therefore selected 4 as a suitable start-point for further chemistry. […] We noted that either lengthening the linker to the aromatic ring, or removing it, led to a loss of activity (6 and 7 respectively).
(§2) Intramacrophage Leishmania donovani Assay

A further data set concerns THP-1 cells. As to the kind of experiment: THP-1 host cell toxicity readout of the Ld InMac assay. Format: cell-based. Conditions: Homo sapiens; host THP-1 cells; mean of n ≥ 3; read-out: THP-1 pEC50 (converted).
Description: as §1, §2

The nature of data set [1]: CAD kinetic aqueous solubility. Format: physicochemical. Conditions: pH 7.4, pH7.4 phosphate buffered saline. Here is the method:
CAD Aqueous Solubility 11
5µl of 10mM DMSO stock solution is diluted to 100 µ l with pH7.4 phosphate buffered saline,
equilibrated for 1 hour at room temperature and filtered through Millipore MultiscreenHTS-PCF

Data set [2] is described as follows: Stability in mouse liver microsomes (intrinsic clearance). Format: in vitro ADME. Conditions: mouse liver microsomal intrinsic clearance, 0.5 μM. How it is done:
Stability in Microsomes 10
Test compound (0.5 μM) was incubated with female CD1 mouse (Xenotech) liver microsomes and their action started with addition of excess NADPH (8 mg/mL 50 mM potassium phosphate buffer, pH 7.4). Immediately, at time zero, then at 3, 6, 9, 15, and 30 min, an aliquot (50 μL) of the incubation mixture was removed and mixed with acetonitrile (100 μL) to stop the reaction.
Internal standard was added to all samples, the samples centrifuged to sediment precipitated protein, and the plates then sealed prior to UPLC-MS/MS analysis using a Xevo TQs micro (Waters Corporation, USA). XLfit (IDBS, UK) was used to calculate the exponential decay and consequently the rate constant (k) from the ratio of the peak area of test compound to internal standard at each time point. The rate of intrinsic clearance (Cl i) of each test compound was then calculated using the equation Cl i (mL/min/g liver) = k × V × microsomal protein yield, where V (mL/mg protein) is the incubation volume/mg protein added and […]
microsomal protein yield is taken as 52.5 mg protein/g liver. Verapamil (0.5 μM) was used as a positive control to confirm acceptable assay performance. […]
In general terms: Liver microsomes are a subcellular fraction often used to study metabolism.

A short description of a further data set: FaSSIF solubility. It is filed as physicochemical. The conditions noted are these: fasted state simulated intestinal fluid (FaSSIF).
A short description of data set [3]: Aqueous solubility, values marked with ref 12. It is filed as physicochemical. Conditions: values marked [12] in the table (method of ref 12, not CAD).
Data set [4] in a line: Oral pharmacokinetics in Balb-c mice. Format: in vivo. The conditions noted are these: mouse, blood, female Balb-c mice, 100 mg kg^–1. The text has this: On this basis, 48 and 50 were progressed into orally dosed pharmacokinetic studies in female Balb-c mice (Table 6), with both having sufficient Cmax (the highest concentration of a drug in the blood) and AUC (area under the curve) to progress into the previously reported mouse efficacy model of VL.[10]

Another data set deals with L. donovani. The data set is described as follows: Mouse efficacy model of VL. Format: in vivo. Conditions: liver load. How it is done:
page 37: microsomal protein yield is taken as 52.5 mg protein/g liver. Verapamil (0.5 μM) was used as a positive control to confirm acceptable assay performance. In Vivo Efficacy Studies 10 Groups of female BALB/c mice (5 per group) were inoculated intravenously with approximately […] L. donovani amastigotes (LV9; WHO designation: MHOM/ET/67/HU3) harvested from the spleen of an infected hamster. From day 7 post infection, groups of mice were treated with either drug vehicle only (orally), with control drugs Miltefosine 30 mg/kg orally and Pentostam 15 mg/kg subcutaneously (only in compound 48 efficacy experiment) or with test compound at the appropriate dose. Miltefosine and Pentostam were dosed once daily for 5 days and test compounds were dosed twice daily for 5 days. Drug dosing solutions were prepared fresh each day and the vehicle was deionized water for Miltefosine and Pentostam, or 0.5% HPMC, 0.4% Tween 80, and 0.5% benzyl alcohol for test compounds. On day 14 all animals were humanely euthanized, liver smears made, and parasite burdens determined by counting the number of amastigotes/500 liver cells. Parasite burden is expressed in Leishman−Donovan units (LDU): the number of amastigotes per 500 nucleated cells multiplied by the organ weight in milligrams. S-37

For orientation: solubility means the dissolved amount per volume that the medium holds. Higher therefore signals much dissolved substance. By AUC is commonly meant concentration integrated over time. Low readings indicate low exposure, high ones high exposure. In general, Cmax refers to the highest concentration seen after dosing. In general, Tmax refers to the time at which the peak concentration occurs.

For the molecule `O=C(Cc1ccc(F)cc1F)N1CCC(Nc2ncc3c(C4CCOCC4)n[nH]c3n2)CC1` [Compound 13], the values for the EC50 in the data set with L. donovani amastigotes and with THP-1 cells were 1000 nM and above 50100 nM, respectively. For the same molecule, the solubility at 1 h in data set [1] amounted to 78 µM (≈ 35.6 µg/mL). Besides, the Cli mouse in data set [2] came to 0.5 ml min^–1 g^–1.
For `O=C(Cc1ccc(F)cc1F)N1CCC(Nc2ncc3c(N4CCOCC4)n[nH]c3n2)CC1` [Compound 15], the EC50 was 794 nM in the data set on L. donovani amastigotes and above 50100 nM in the data set on THP-1 cells. Moreover, the solubility at 1 h in data set [1] came to 14 µM (≈ 6.4 µg/mL). This molecule displayed a Cli mouse in data set [2] of 2 ml min^–1 g^–1.
For `O=C(Cc1ccc(F)cc1F)N1CCC(Nc2ncc3c(-c4ccccc4)n[nH]c3n2)CC1` [Compound 17] the same measures were 316 nM, above 50100 nM, below 1 µM and 7.2 ml min^–1 g^–1.
Take `O=C(Cc1ccc(F)cc1F)N1CCC(Nc2ncc3c(-c4ccccn4)n[nH]c3n2)CC1` [Compound 18]: the EC50 in the data set with L. donovani amastigotes was 794 nM; in the data set with THP-1 cells, above 50100 nM. In addition, the solubility at 1 h in data set [1] worked out at 23 µM (≈ 10.3 µg/mL). The molecule further yielded a Cli mouse in data set [2] of 6.7 ml min^–1 g^–1.
Take `Cn1nccc1-c1n[nH]c2nc(NC3CCN(C(=O)Cc4ccc(F)cc4F)CC3)ncc12` [Compound 19]: in the data set with L. donovani amastigotes (Ld InMac, versus matched comparator), the “loss of potency (less active) versus comparator compound” value stood at 10 fold. For the same molecule, the EC50 is 3160 nM in the data set with L. donovani amastigotes and 20000 nM in the data set with THP-1 cells. Besides, in data set [1], the solubility at 1 h is 30 µM (≈ 13.6 µg/mL). In data set [2], the Cli mouse came to 3.3 ml min^–1 g^–1.
With `COc1ccccc1-c1n[nH]c2nc(NC3CCN(C(=O)Cc4ccc(F)cc4F)CC3)ncc12` [Compound 20], the EC50 is 79.4 nM with L. donovani amastigotes and 39800 nM in the data set on THP-1 cells. Moreover, in data set [1], the solubility at 1 h is below 1 µM. In addition, the Cli mouse in data set [2] is reported as 5.0 ml min^–1 g^–1. The solubility in “FaSSIF solubility” is below 1 µg/mL.
As for `COc1ncccc1-c1n[nH]c2nc(NC3CCN(C(=O)Cc4ccc(F)cc4F)CC3)ncc12` [Compound 21], the EC50 was 79.4 nM in the data set with L. donovani amastigotes and above 50100 nM in the data set on THP-1 cells. In data set [1], this molecule returned a solubility at 1 h of 25 µM (≈ 12 µg/mL). The Cli mouse in data set [2] is 15 ml min^–1 g^–1.
As for `COc1ccccc1-c1n[nH]c2nc(NC3CCN(S(=O)(=O)CCC(F)(F)F)CC3)ncc12` [Compound 37], the EC50 was 200 nM in the data set with L. donovani amastigotes and above 50100 nM in the data set with THP-1 cells. The solubility at 1 h in data set [1] was below 1 µM. The molecule also displayed a Cli mouse in data set [2] of 14 ml min^–1 g^–1.
For `CCOC(=O)N1CCC(Nc2ncc3c(-c4ccccc4OC)n[nH]c3n2)CC1` [Compound 38] the same measures were 501 nM, 39800 nM, 24 µM (≈ 9.51 µg/mL) and 14 ml min^–1 g^–1.
For `COc1ccccc1-c1n[nH]c2nc(NC3CCN(C(=O)N4CCOCC4)CC3)ncc12` [Compound 40], the values for the EC50 in the data set on L. donovani amastigotes and in the data set with THP-1 cells were 2000 nM and above 50100 nM, respectively. The molecule further registered a solubility at 1 h in data set [1] of 79 µM (≈ 34.6 µg/mL). In data set [2], the Cli mouse is recorded as 2 ml min^–1 g^–1.
With `COc1ccccc1-c1n[nH]c2nc(NC3CCN(c4ccc(Cl)nn4)CC3)ncc12` [Compound 41], the EC50 was 158 nM in the data set with L. donovani amastigotes and above 50100 nM with THP-1 cells. In data set [3], this molecule gave a solubility of 4 µM (≈ 1.75 µg/mL). In data set [2], this molecule came in with a Cli mouse of 3.4 ml min^–1 g^–1.
With `COc1ccccc1-c1n[nH]c2nc(NC3CCN(C(=O)CC4CC4)CC3)ncc12` [Compound 42], the EC50 in the data set with L. donovani amastigotes was 316 nM; in the data set on THP-1 cells it was 39800 nM. In data set [1], this molecule yielded a solubility at 1 h of 22 µM (≈ 8.94 µg/mL). This molecule displayed a Cli mouse in data set [2] of 1.6 ml min^–1 g^–1. In “FaSSIF solubility”, the solubility was below 1 µg/mL.
Consider `COc1ccccc1-c1n[nH]c2nc(NC3CCN(C(=O)Cc4ccc(F)c(F)c4)CC3)ncc12` [Compound 43], for which the EC50 was 25.1 nM in the data set with L. donovani amastigotes and 15800 nM in the data set on THP-1 cells. The molecule further returned a solubility at 1 h in data set [1] of 53 µM (≈ 25.4 µg/mL). For the same molecule, in data set [2], the Cli mouse amounted to 6.3 ml min^–1 g^–1.
For `O=C(CC1CC1)N1CCC(Nc2ncc3c(C4CCOCC4)n[nH]c3n2)CC1` [Compound 44] the same measures were 7940 nM, above 50100 nM, at least 496 µM and 0.8 ml min^–1 g^–1.
In the case of `O=C(Cc1ccc(F)c(F)c1)N1CCC(Nc2ncc3c(C4CCOCC4)n[nH]c3n2)CC1` [Compound 47], the EC50 was 1000 nM with L. donovani amastigotes and above 50100 nM in the data set with THP-1 cells. Moreover, the solubility at 1 h in data set [1] is at least 429 µM. In addition, the Cli mouse in data set [2] is given as 3.1 ml min^–1 g^–1.
As for `Clc1ccc(N2CCC(Nc3ncc4c(C5CCOCC5)n[nH]c4n3)CC2)nn1` [Compound 49], the results for the EC50 in the data set on L. donovani amastigotes and in the data set on THP-1 cells were 1580 nM and above 50100 nM, respectively. The solubility in data set [3] (aqueous solution) was 63 µM (≈ 26.1 µg/mL).
On to `Clc1ccc(N2CCC(Nc3ncc4c(N5CCOCC5)n[nH]c4n3)CC2)nn1` [Compound 50], for which the results for the EC50 in the data set with L. donovani amastigotes and in the data set with THP-1 cells were 631 nM and above 50100 nM, respectively. Besides, the solubility in data set [3] (aqueous solution) was 121 µM (≈ 50.3 µg/mL); in the data set “FaSSIF solubility” it was 88 µg/mL (≈ 212 µM). This molecule also yielded a Cli mouse in data set [2] of 0.6 ml min^–1 g^–1. The area under the curve (AUC) in data set [4] is 39800 ng·h/mL. The same molecule showed a Cmax in data set [4] of 5230 ng/mL. In data set [4], the Tmax came to 4 h. Also, the figures for the “% Suppression of parasite load” value in the data set with L. donovani (25 mg kg^–1 b.i.d. for 5 days PO) and in the data set on L. donovani (50 mg kg^–1 b.i.d. for 5 days PO) were 17% and 57%, respectively.
